One assay relates to Bacillus subtilis 168CA. Kind of assay: Minimum Inhibitory Concentration (MIC) testing, broth microdilution, Bacillus subtilis. The format is cell-based. Particulars: Bacillus subtilis 168CA; for MIC: read-out: Bacillus subtilis MICs Activity. In a few lines:
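MICs were scored A (≦8 μg/ml), B (16–64 μg/ml) or C (>64 μg/ml), read as the lowest concentration preventing visible growth by eye and spectrophotometry. Plates incubated overnight (16–20 h) at 37 °C, inoculum OD 0.09 diluted 1:100 in 2× broth, per NCCLS guidelines.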
A general note: Dilution methods test growth across graded concentrations, often in twofold steps.

Assay [1] concerns Staphylococcus aureus ATCC29213. Briefly: Minimum Inhibitory Concentration (MIC) testing, broth microdilution, Staphylococcus aureus. The format is cell-based. Particulars: Staphylococcus aureus ATCC29213; for MIC: read-out: Staphylococcus aureus MICs Activity. The procedure, abridged: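 Broth microdilution per NCCLS M7-A5 in Mueller Hinton broth, with compound in 1.6% DMSO and inoculum at OD 0.09 diluted 1:100. Plates incubated 16–20 h at 37°C. MIC is the lowest concentration with no visible growth; scored A ≤8, B 16–64, C >64 μg/ml.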

This note sets out measurements from US8088791B2, “Antibacterial agents” (Biots Scientific Management Pty Ltd, priority 2006, dated 2012).

≈ marks a conversion by molar mass, not a printed value.

On to `CC(C)(C)c1ccc2oc(COc3ccc(F)c(C(N)=O)c3F)nc2c1` [Example 213, 3-[5-(tert-Butyl)-1,3-benzoxazol-2-yl]methoxy-2,6-difluorobenzenecarboxamide], for which the results for the MIC (in the assay on Bacillus subtilis 168CA; in assay [1]) were under 8 µg/mL and 16 to 64 µg/mL (≈ 44.4 to 178 µM), respectively.

Regarding `NC(=O)c1c(F)ccc(OCc2ccoc2)c1F` [Example 184, 2,6-Difluoro-3-(3-furylmethoxy)benzenecarboxamide], the MIC (in the assay with Bacillus subtilis 168CA; in assay [1]) was 16 to 64 µg/mL (≈ 63.2 to 253 µM) each time.

For `CCCCCCOCCOc1cccc(C(N)=O)c1` [Example 54, 3-[2-(Hexyloxy)ethoxy]benzenecarboxamide], the MIC (in the assay with Bacillus subtilis 168CA; in assay [1]) was 16 to 64 µg/mL (≈ 60.3 to 241 µM) in each case.

Regarding `COc1cccc(-c2noc(COc3ccc(F)c(C(N)=O)c3F)n2)c1` [Example 256, 2,6-Difluoro-3-[3-(3-methoxyphenyl)-1,2,4-oxadiazol-5-yl]methoxybenzenecarboxamide], the MIC was under 8 µg/mL with Bacillus subtilis 168CA and 16 to 64 µg/mL (≈ 44.3 to 177 µM) in assay [1].

On to `NC(=O)c1c(Cl)ccc(OCc2nc(-c3ccc(Cl)cc3)cs2)c1F` [Example 273, 6-Chloro-3-[4-(4-chloro-phenyl)-thiazol-2-ylmethoxy]-2-fluoro-benzamide], for which the MIC (with Bacillus subtilis 168CA; in assay [1]) was under 8 µg/mL in each case.

As to `CCc1ccc(-c2noc(COc3ccc(F)c(C(N)=O)c3F)n2)cc1` [Example 250, 3-[3-(4-Ethylphenyl)-1,2,4-oxadiazol-5-yl]methoxy-2,6-difluorobenzenecarboxamide], the MIC (in the assay on Bacillus subtilis 168CA; in assay [1]) was under 8 µg/mL throughout.

As for `Cc1ccc2nc(COc3ccc(F)c(C(N)=O)c3F)oc2c1` [Example 211, 2,6-Difluoro-3-[(6-methyl-1,3-benzoxazol-2-yl)methoxy]benzenecarboxamide], the MIC in the assay with Bacillus subtilis 168CA is under 8 µg/mL; in assay [1], 16 to 64 µg/mL (≈ 50.3 to 201 µM).

For `NC(=O)c1c(F)ccc(OCc2nc3cccc(Cl)c3s2)c1F` [Example 104, 2,6-Difluoro-3-(7-chloro-benzothiazol-2-ylmethoxy)-benzamide], the MIC (with Bacillus subtilis 168CA; in assay [1]) was under 8 µg/mL in each case.

For `CCCCOC(=O)COc1cccc(C(N)=O)c1` [Example 41, Butyl 2-[3-(aminocarbonyl)phenoxy]acetate], the MIC (in the assay with Bacillus subtilis 168CA; in assay [1]) was 16 to 64 µg/mL (≈ 63.7 to 255 µM) throughout.

`CCCCCCOCCOc1ccc(F)c(C(N)=O)c1F` [Example 85, 2,6-Difluoro-3-[2-(hexyloxy)ethoxy]benzenecarboxamide]: the MIC (with Bacillus subtilis 168CA; in assay [1]) was under 8 µg/mL throughout.

Regarding `NC(=O)c1c(F)ccc(OCc2nc3cc(-c4cccc(O)c4)ccc3s2)c1F` [Example 136, 2,6-Difluoro-3-[5-(3-hydroxy-phenyl)-benzothiazol-2-ylmethoxy]-benzamide], the MIC (in the assay on Bacillus subtilis 168CA; in assay [1]) was under 8 µg/mL in each case.

Take `CCCCCCOc1cccc(C(N)=O)c1` [Example 8, 3-(Hexyloxy)benzenecarboxamide]: the MIC (in the assay with Bacillus subtilis 168CA; in assay [1]) was 16 to 64 µg/mL (≈ 72.3 to 289 µM) in each case.

For the compound `CCCC/C=C/CCCCOc1cccc(C(N)=O)c1` [Example 58, 3-[(E)-5-Decenyloxy]benzenecarboxamide], the MIC (in the assay with Bacillus subtilis 168CA; in assay [1]) was under 8 µg/mL each time.

Consider `CC/C=C\CCCCOc1ccc(F)c(C(N)=O)c1` [Example 73, 2-Fluoro-5-[(Z)-5-octenyloxy]benzenecarboxamide], for which the MIC (in the assay on Bacillus subtilis 168CA; in assay [1]) was under 8 µg/mL each time.

Regarding `NC(=O)c1cc(OCc2nc(-c3ccc(Cl)cc3)no2)ccc1F` [Example 268, 5-[3-(4-Chloro-phenyl)-[1,2,4]oxadiazol-5-ylmethoxy]-2-fluoro-benzamide], the MIC is under 8 µg/mL in the assay with Bacillus subtilis 168CA and 16 to 64 µg/mL (≈ 46 to 184 µM) in assay [1].

Regarding `CCOc1cccc(COc2ccc(F)c(C(N)=O)c2F)c1` [Example 196, 3-[(3-Ethoxybenzyl)oxy]-2,6-difluorobenzenecarboxamide], the MIC in the assay with Bacillus subtilis 168CA is under 8 µg/mL; in assay [1], 16 to 64 µg/mL (≈ 52.1 to 208 µM).

In the case of `NC(=O)c1cc(OCc2nc(-c3ccc(Cl)cc3)cs2)ccc1F` [Example 272, 5-[4-(4-Chloro-phenyl)-thiazol-2-ylmethoxy]-2-fluoro-benzamide], the MIC (in the assay on Bacillus subtilis 168CA; in assay [1]) was under 8 µg/mL each time.

As to `NC(=O)c1c(F)ccc(OCc2nccs2)c1F` [Example 191, 2,6-Difluoro-3-(1,3-thiazol-2-ylmethoxy)benzenecarboxamide], the MIC (in the assay with Bacillus subtilis 168CA; in assay [1]) was 16 to 64 µg/mL (≈ 59.2 to 237 µM) each time.

As to `NC(=O)c1c(F)ccc(OCc2csc(-c3ccc(Cl)cc3)n2)c1F` [Example 306, 3-[2-(4-Chloro-phenyl)-thiazol-4-ylmethoxy]-2,6-difluoro-benzamide], the MIC (in the assay with Bacillus subtilis 168CA; in assay [1]) was under 8 µg/mL in each case.

`CCCCCCCOc1cccc(C(N)=O)c1` [Example 24, 3-(Heptyloxy)benzenecarboxamide]: the MIC (with Bacillus subtilis 168CA; in assay [1]) was under 8 µg/mL in each case.

Turning to `NC(=O)c1c(F)ccc(OCCn2cccn2)c1F` [Example 144, 2,6-Difluoro-3-(2-pyrazol-1-yl-ethoxy) benzamide], the “Bacillus subtilis MICs Activity” value in the assay on Bacillus subtilis 168CA is given as “C (‘C’ if the MIC was greater than 64 micrograms/ml)”. In addition, the “Staphylococcus aureus MICs Activity” value in assay [1] is given as “C (‘C’ if the MIC was greater than 64 micrograms/ml)”.

Take `NC(=O)c1c(F)ccc(OCc2nc(-c3ccc(O)cc3)cs2)c1F` [Example 290, 2,6-Difluoro-3-[4-(4-hydroxy-phenyl)-thiazol-2-ylmethoxy]-benzamide]: the MIC (with Bacillus subtilis 168CA; in assay [1]) was under 8 µg/mL each time.

With `Cc1ccccc1-c1nc(COc2ccc(F)c(C(N)=O)c2F)sc1Br` [Example 130], the MIC (with Bacillus subtilis 168CA; in assay [1]) was under 8 µg/mL throughout.

Regarding `NC(=O)c1c(F)ccc(OCc2nc3ccccc3o2)c1F` [Example 209, 3-(1,3-Benzoxazol-2-ylmethoxy)-2,6-difluorobenzenecarboxamide], the MIC with Bacillus subtilis 168CA is 16 to 64 µg/mL (≈ 52.6 to 210 µM); in assay [1], over 64 µg/mL.

As to “3-Pentyl-2,3-dihydro-1,4-benzodioxine-6-carboxamide and 2-pentyl-2,3-dihydro-1,4-benzodioxine-6-carboxamide [Example 95]”, the “Bacillus subtilis MICs Activity” value in the assay on Bacillus subtilis 168CA is “B (‘B’ if the MIC was 16 to 64 micrograms/ml)”. The “Staphylococcus aureus MICs Activity” value in assay [1] is reported as “C (‘C’ if the MIC was greater than 64 micrograms/ml)”.

For the compound `Cc1ccc2nc(COc3ccc(F)c(C(N)=O)c3F)sc2c1` [Example 229, 2,6-Difluoro-3-[(6-methyl-1,3-benzothiazol-2-yl)methoxy]benzenecarboxamide], the MIC (with Bacillus subtilis 168CA; in assay [1]) was under 8 µg/mL each time.

For `NC(=O)c1c(F)ccc(OCc2nc3cc(-c4ccc(O)cc4)ccc3s2)c1F` [Example 140, 2,6-Difluoro-3-[5-(4-hydroxy-phenyl)-benzothiazol-2-ylmethoxy]-benzamide], the MIC in the assay with Bacillus subtilis 168CA was over 64 µg/mL; in assay [1], under 8 µg/mL.

As for `NC(=O)c1c(F)ccc(OCc2noc(C=Cc3ccccc3)n2)c1F` [Example 149, 2,6-Difluoro-3-(5-styryl-[1,2,4]oxadiazol-3-ylmethoxy)-benzamide], the MIC in the assay on Bacillus subtilis 168CA is under 8 µg/mL; in assay [1], 16 to 64 µg/mL (≈ 44.8 to 179 µM).

`CC/C=C\CCCCOc1cccc(C(N)=O)c1` [Example 52, 3-[(Z)-5-Octenyloxy]benzenecarboxamide]: the MIC (in the assay with Bacillus subtilis 168CA; in assay [1]) was under 8 µg/mL each time.

For the compound `NC(=O)c1c(F)ccc(OCc2nc(-c3nccs3)no2)c1F` [Example 326, 2,6-Difluoro-3-(3-thiazol-2-yl-[1,2,4]oxadiazol-5-ylmethoxy)-benzamide], the MIC (with Bacillus subtilis 168CA; in assay [1]) was 16 to 64 µg/mL (≈ 47.3 to 189 µM) each time.
